We go through seven compounds from patent US20090227563A1, “HERBICIDAL COMPOSITIONS HAVING IMPROVED EFFECT” (Bayer CropScience AG, priority 2005, published 2009).

Common to all, as to format: in vivo
The subject of test [1] is Avena fatua (AVEFA). Briefly: Plot trials (about 10 m2, 9 trials), post-emergence treatment. As to conditions: 5 g/ha, sum of all trials. On the procedure:
(§1) In plots measuring approximately 10 m^2, in 9 trials, post-emergence treatments were carried out in 2-3 repetitions with compound (I-1-c-1). The weed population was the natural population and/or a sown population specifically geared to the objective. The active ingredient (I-1-c-1) was delivered as an EC formulation at the stated application rates with a penetrant of the formula (III-c-1) at a concentration of 0.3 g/l in 300 l of water, as a tank mix. In the elements of the trial with ammonium sulphate (AMS) the salt was added at 1 g/l to the spray liquor. Evaluation was made on the day of maximum activity. The activities reported in Table 5 are those obtained over the sum of all the trials.
(§2) AGRRE=Agropyron repens ALOMY=Alopecurus myosuroides AVEFA=Avena fatua

Test [2] deals with Agropyron repens (AGRRE). The description is as above. As to conditions: 5 g/ha, sum of all trials. The protocol:
as §1, §2

Test [3] relates to Alopecurus myosuroides (ALOMY). The description is as above. The conditions noted are these: 5 g/ha, sum of all trials. On the procedure:
as §1, §2

For test [4], the system named is Bromus erectus (BROER). Kind of test: Glasshouse trial on activity boost, post-emergence spraying, visual rating. The conditions noted are these: 5 g/ha. On the procedure: (§3) Seeds of monocot and dicot weeds and crop plants are sown in sandy loam soil in wood fibre pots or in plastic pots, and are covered with soil and cultivated under good growth conditions in the glasshouse and also, during the vegetation period, outdoors outside the glasshouse. 2-3 weeks after sowing, the trial plants are treated at the one- to three-leaf stage. The test compounds, formulated as wettable powders (WP) or liquids (EC), are applied by spraying to the plants and the soil surface in various doses, with a water application rate of 300 l/ha (converted) and with the addition of penetrants (0.2% to 0.4%) and where appropriate an ammonium salt. After the trial plants had stood in the glasshouse for about 3 to 4 weeks under optimum growth conditions, the activity of the products was rated visually in comparison to untreated controls (activity in %, i.e. 0%=no activity or as control, 100%=all plants died).
(§4) ALOMY=Alopecurus myosuroides AVEFA=Avena fatua LOLMU=Lolium multiflorum SETVI=Setaria viridis BROER=Bromus erectus

Test [5] relates to Avena fatua (AVEFA). The description is as above. On the procedure:
as §3
(§5) For rapeseed oil methyl ester (RME) the following tables specify concentration in % a.i. by volume for ammonium sulphate (AMS) in g/l in the spray liquor.
(§6) ALOMY=Alopecurus myosuroides AVEFA=Avena fatua LOLMU=Lolium multiflorum LOLRI=Lolium rigidum
(§7) ALOMY=Alopecurus myosuroides AVEFA=Avena fatua LOLMU=Lolium multiflorum SETVI=Setaria viridis
as §4

Test [6] deals with Alopecurus myosuroides (ALOMY). The test is described as above. The protocol: as §3, §5, §6, §7, §4
The test system of test [7] is APESV. The description is as above. The conditions noted are these: 5 g/ha. On the procedure:
as §3

For test [8], the system named is LOLME. The test is described as above. The conditions noted are these: 5 g/ha. The protocol:
as §3

Test [9] deals with Lolium multiflorum (LOLMU). Described as above. On the procedure:
as §3, §5, §6, §7

For test [10], the system named is Lolium rigidum (LOLRI). Described as above. On the procedure: as §3, §5, §6
The subject of test [11] is Setaria viridis (SETVI). Described as above. On the procedure: as §3, §5, §7
Setting [12] is: (III-c-1) (0.3 g/l) + AMS (1 g/l).
Where [13] appears, read: Genapol LRO (0.33%) + AMS (3.3 g/l).
[14] abbreviates: 5 g/ha, Genapol LRO (0.33%) + AMS (3.3 g/l).
[15] abbreviates: 50 g/ha, RME (0.25%) + AMS (6.6 g/l).
The mark [16] stands for this setting: 25 g/ha, RME (0.25%) + AMS (3.3 g/l).
Setting [17] is: 50 g/ha, RME (0.25%) + AMS (3.3 g/l).
Where [18] appears, read: 12.5 g/ha, RME (0.25%) + AMS (3.3 g/l).

The structures appear in SMILES notation. “And” between values parts separate entries of the source, which are not always exact repeats. Identical values can stand only once.

On to `CCOC(=O)OC1=C(c2c(CC)cc(Cl)cc2OC)C(=O)NC12CCC(OC)CC2` (centres unmarked) [I-1-c-1], for which the Activity in [1] (setting [12]) was 90%; in test [1] ((III-c-1) (0.3 g/l)), 80%; in [2] (setting [12]) it was 90%; in test [2] ((III-c-1) (0.3 g/l)), 80%; in test [3] (setting [12]), 72%; in [3] ((III-c-1) (0.3 g/l)) it was 67%. Also, the Activity in test [4] (Genapol LRO (0.33%)) is 73%; in [4] (setting [13]) it was 97%; in test [5] (5 g/ha, Genapol LRO (0.33%)), 75%; in test [5] (setting [14]) it was 100%; in test [6] (5 g/ha, Genapol LRO (0.33%)) it was 73%; in test [6] (setting [14]) it was 99%. Also, the Activity is recorded as 93% in test [7] (Genapol LRO (0.33%)), 97% in test [7] (setting [13]), 86% in [8] (Genapol LRO (0.33%)) and 97% in test [8] (setting [13]).

Take `CCc1cc(-c2ccc(Cl)cc2)cc(C)c1C1=C(O)C2(CCC(OC)CC2)OC1=O` (centres unmarked) [I-2-a-1]: the Activity in test [6] (50 g/ha, RME (0.25%)) amounted to 30%; in test [6] (setting [15]), 70%; in test [6] (100 g/ha, RME (0.25%)) it was 30%; in test [6] (100 g/ha, RME (0.25%) + AMS (6.6 g/l)), 70%; in test [9] (25 g/ha, RME (0.25%)), 30%; in test [9] (50 g/ha, RME (0.25%)), 70%. The Activity is 20% in [10] (25 g/ha, RME (0.25%)); 40% in test [10] (50 g/ha, RME (0.25%)); 80% and 40% in [10] (setting [15]).

Consider `CC1=CC(=O)C(c2c(C)cc(C)cc2C)C(=O)O1` (centres unmarked) [I-4-a-1], for which the Activity in [11] (25 g/ha, RME (0.25%)) is 0%; in [11] (setting [16]), 20%; in [11] (50 g/ha, RME (0.25%)), 0%; in test [11] (setting [17]) it was 90%; in test [11] (100 g/ha, RME (0.25%)) it was 0%; in [11] (100 g/ha, RME (0.25%) + AMS (3.3 g/l)) it was 90%.

`CCc1cc(C)cc(C)c1C1C(=O)CC2(CCCCC2)C1=O` (centres unmarked) [I-6-a-1]: the Activity was 0% in test [11] (12.5 g/ha, RME (0.25%)); 25% in [11] (setting [18]); 15% in test [11] (25 g/ha, RME (0.25%)); 90% in [11] (setting [16]); 25% in test [11] (50 g/ha, RME (0.25%)); 90% in [11] (setting [17]).

Consider `CCc1cc(C)cc(CC)c1C1C(=O)[C@H]2CCCC[C@@H]2C1=O` [I-6-a-2], for which the Activity was 10% in test [5] (12.5 g/ha, RME (0.25%)); 93% in [5] (setting [18]); 35% in test [5] (25 g/ha, RME (0.25%)); 99% in test [5] (setting [16]); 10% in [6] (12.5 g/ha, RME (0.25%)); 75% in test [6] (setting [18]). For the same compound, the Activity in test [6] (25 g/ha, RME (0.25%)) is on record as 30%; in [6] (setting [16]), 93%; in [9] (12.5 g/ha, RME (0.25%)), 5%; in test [9] (setting [18]) it was 97%; in test [9] (25 g/ha, RME (0.25%)), 20%; in test [9] (setting [16]), 100%.

Consider `CCc1cc(Cl)cc(OC)c1-c1c(O)n2n(c1=O)CCCC2` [I-8-a-1], for which the Activity in [5] (12.5 g/ha, RME (0.25%)) turned out to be 30%; in [5] (setting [18]) it was 70%; in test [5] (25 g/ha, RME (0.25%)), 40%; in [5] (setting [16]) it was 80%; in test [6] (12.5 g/ha, RME (0.25%)), 5%; in test [6] (setting [18]), 50%. The Activity is listed as 50% in [6] (25 g/ha, RME (0.25%)); 70% in test [6] (setting [16]); 10% in test [9] (12.5 g/ha, RME (0.25%)); 70% in test [9] (setting [18]); 80% in [9] (25 g/ha, RME (0.25%)); 95% in test [9] (setting [16]).

As for `CCc1cc(C)cc(CC)c1-c1c(OC(=O)C(C)(C)C)n2n(c1=O)CCOCC2` [I-8-b-1], the Activity in test [5] (25 g/ha, RME (0.25%)) is listed as 30%; in test [5] (setting [16]), 80%; in test [5] (50 g/ha, RME (0.25%)), 70%; in [5] (50 g/ha, RME (0.25%) + AMS (0.33 g/l)), 90%; in [5] (50 g/ha, RME (0.25%) + AMS (1 g/l)) it was 95%; in test [5] (setting [17]), 97%. The Activity in test [6] (25 g/ha, RME (0.25%)) amounted to 20%; in test [6] (25 g/ha, RME (0.25%) + AMS (0.33 g/l)), 70%; in test [6] (25 g/ha, RME (0.25%) + AMS (1 g/l)), 50%; in test [6] (setting [16]) it was 80%; in [6] (50 g/ha, RME (0.25%)), 90%; in [6] (setting [17]), 95%. Besides, the Activity in test [9] (25 g/ha, RME (0.25%)) is listed as 60%; in test [9] (setting [16]) it was 93%; in [9] (50 g/ha, RME (0.25%)) it was 97%; in test [9] (setting [17]), 100%.
